Measurements: ChEMBL document CHEMBL6178002, “Identification of a RANKL/TNF-α Dual-Inhibitor as a Potential Disease-Modifying Agent for the Treatment of Knee Osteoarthritis” (J Med Chem, 2025)
Active and inactive are the calls of the source.

Legend:
[1] = Cytotoxicity against bone marrow macrophage cells (unknown origin) assessed as cell viability at 10 uM incubated for 24 hrs by CCK8 assay relative to control; format: toxicity, cell-based; conditions: read-out: Activity
[2] = Inhibition of RANKL/M-CSF-induced osteoclastogenesis in male C57/BL6 mouse bone marrow cells at 0.1 uM incubated for 5 to 7 days by TRAP staining based analysis relative to control; format: functional; conditions: C57/BL6, Bone marrow cell, time 5-7 day
[3] = target: T1, Tumor necrosis factor ligand superfamily member 11 (Homo sapiens, UniProt O14788); experiment: Binding affinity to CM5 chip-immobilized human RANKL assessed as dissociation constant by SPR analysis
T1 sequence (O14788 whole entry): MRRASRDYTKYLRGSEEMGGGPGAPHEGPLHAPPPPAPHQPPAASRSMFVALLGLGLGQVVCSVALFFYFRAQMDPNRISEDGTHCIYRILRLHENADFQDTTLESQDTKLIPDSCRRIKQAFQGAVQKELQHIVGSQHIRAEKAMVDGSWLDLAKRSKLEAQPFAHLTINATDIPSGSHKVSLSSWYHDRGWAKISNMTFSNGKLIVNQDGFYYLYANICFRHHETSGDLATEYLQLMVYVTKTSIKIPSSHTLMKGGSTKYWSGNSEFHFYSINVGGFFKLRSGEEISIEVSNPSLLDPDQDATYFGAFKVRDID

[4] = (§1) Inhibition of RANKL/M-CSF-induced osteoclastogenesis in male C57/BL6 mouse bone marrow cells incubated for 5 to 7 days by TRAP staining based analysis; format: functional; conditions: bone marrow cell
Bone marrow cell [5] = experiment: as §1; format: functional; conditions: dose <= 5.0 µM, time 5-7 day
Bone marrow cell [6] = experiment: Inhibition of RANKL/M-CSF-induced osteoclastogenesis in male C57/BL6 mouse bone marrow cells at 1 uM by TRAP staining based analysis; format: functional; conditions: time 1-7 day
Bone marrow cell [7] = experiment: Inhibition of RANKL/M-CSF-induced osteoclastogenesis in male C57/BL6 mouse bone marrow cells assessed as decrease in F-actin loop formation incubated for 5 to 7 days by rhodamine phalloidin/DAPI staining based analysis; format: functional; conditions: dose <= 1.0 µM, time 5-7 day
Bone marrow macrophage [8] = experiment: Inhibition of RANKL/M-CSF-induced osteoclastogenesis in bone marrow macrophage cells (unknown origin) assessed as decrease in NFATC1 mRNA level incubated for 48 hrs by RT-qPCR analysis; format: functional, cell-based; conditions: dose <= 5.0 µM
Bone marrow macrophage [9] = experiment: Inhibition of RANKL/M-CSF-induced osteoclastogenesis in bone marrow macrophage cells (unknown origin) assessed as decrease in NFATC1 mRNA level at 1 uM by RT-qPCR analysis; format: functional, cell-based; conditions: time <= 5.0 day
Bone marrow macrophage [10] = experiment: Inhibition of RANKL/M-CSF-induced osteoclastogenesis in bone marrow macrophage cells (unknown origin) assessed as decrease in TRAP mRNA level at 1 uM by RT-qPCR analysis; format: functional, cell-based; conditions: time <= 5.0 day
Bone marrow macrophage [11] = experiment: Inhibition of RANKL/M-CSF-induced osteoclastogenesis in bone marrow macrophage cells (unknown origin) assessed as decrease in cathepsin K mRNA level at 1 uM by RT-qPCR analysis; format: functional, cell-based; conditions: time <= 5.0 day
Bone marrow macrophage [12] = experiment: Inhibition of RANKL/M-CSF-induced osteoclastogenesis in bone marrow macrophage cells (unknown origin) assessed as decrease in c-Fos level incubated for 48 hrs by Western blot analysis; format: functional, cell-based; conditions: dose <= 2.5 µM
Bone marrow macrophage [13] = experiment: Inhibition of RANKL/M-CSF-induced osteoclastogenesis in bone marrow macrophage cells (unknown origin) assessed as decrease in TRAP level incubated for 48 hrs by Western blot analysis; format: functional, cell-based; conditions: dose <= 2.5 µM
Bone marrow macrophage [14] = experiment: Inhibition of RANKL/M-CSF-induced osteoclastogenesis in bone marrow macrophage cells (unknown origin) assessed as decrease in MMP-9 level incubated for 48 hrs by Western blot analysis; format: functional, cell-based; conditions: dose <= 2.5 µM
Bone marrow macrophage [15] = experiment: Inhibition of RANKL/M-CSF-induced osteoclastogenesis in bone marrow macrophage cells (unknown origin) assessed as decrease in cathepsin K level at 1 uM by Western blot analysis; format: functional, cell-based; conditions: time <= 5.0 day
Bone marrow macrophage [16] = experiment: Inhibition of RANKL/M-CSF-induced osteoclastogenesis in bone marrow macrophage cells (unknown origin) assessed as decrease in NFATC1 level at 1 uM by Western blot analysis; format: functional, cell-based; conditions: time <= 5.0 day
Bone marrow macrophage [17] = experiment: Inhibition of RANKL/M-CSF-induced osteoclastogenesis in bone marrow macrophage cells (unknown origin) assessed as decrease in TRAP level at 1 uM by Western blot analysis; format: functional, cell-based; conditions: time <= 5.0 day
Bone marrow macrophage [18] = experiment: Inhibition of RANKL/M-CSF-induced osteoclastogenesis in bone marrow macrophage cells (unknown origin) assessed as decrease in MMP-9 level at 1 uM by Western blot analysis; format: functional, cell-based; conditions: time <= 5.0 day
RAW264.7 [19] = experiment: Anti-inflammatory activity in LPS-stimulated mouse RAW264.7 cells assessed as decrease in TNF-alpha level at 10 uM preincubated for 24 hrs followed by LPS addition measured after 2 hrs by RT-qPCR analysis; format: functional, cell-based; conditions: time 26.0 hrs
RAW264.7 [20] = experiment: Anti-inflammatory activity in LPS-stimulated mouse RAW264.7 cells assessed as decrease in IL-18 level at 10 uM preincubated for 24 hrs followed by LPS addition measured after 2 hrs by RT-qPCR analysis; format: functional, cell-based; conditions: time 26.0 hrs
RAW264.7 [21] = experiment: Inhibition of NFkappaB activation in mouse RAW264.7 cells assessed as reduction in TNF-alpha-induced NF-kappaB p65 phosphorylation at 10 uM preincubated for 12 hrs followed by TNF-alpha addition measured after 2 hrs by immunofluorescence based analysis; format: cell-based; conditions: time 14.0 hrs
RAW264.7 [22] = experiment: Inhibition of NFkappaB activation in mouse RAW264.7 cells assessed as reduction in TNF-alpha-induced NF-kappaB p65 phosphorylation at 1 to 10 uM preincubated for 12 hrs followed by LPS/TNF-alpha addition measured after 2 hrs by Western blot analysis; format: cell-based; conditions: dose 1-10 µM, time 14.0 hrs
Primary chondrocyte [23] = experiment: Anti-inflammatory activity in IL-1beta-treated C57/BL6 mouse primary chondrocytes assessed as decrease in MMP-3 mRNA level at 10 uM incubated for 24 hrs by RT-qPCR analysis; format: functional, cell-based
Primary chondrocyte [24] = experiment: Anti-inflammatory activity in IL-1beta-treated C57/BL6 mouse primary chondrocytes assessed as decrease in MMP-9 mRNA level at 10 uM incubated for 24 hrs by RT-qPCR analysis; format: functional, cell-based
[25] = Cmax in male Sprague-Dawley rat at 1 mg/kg, iv measured for 0.25 to 24 hrs; format: ADME, organism-based; conditions: in vivo, time 0.25-24 hrs
[26] = Volume of distribution at steady state in male Sprague-Dawley rat at 1 mg/kg, iv measured for 0.25 to 24 hrs; format: ADME, organism-based; conditions: in vivo, time 0.25-24 hrs, read-out: Vdss
[27] = Oral bioavailability in male Sprague-Dawley rat at 1 mg/kg, iv measured for 0.25 to 24 hrs; format: ADME, organism-based; conditions: in vivo, time 0.25-24 hrs
Rattus norvegicus [28] = organism: Rattus norvegicus; experiment: Anti-inflammatory activity in male Sprague-Dawley rat model of ACLT-induced osteoarthritis assessed as reduction in OARSI score at 50 to 100 ug, IART treated weekly once for 8 weeks; format: functional, organism-based; conditions: dose 50-100 µg
Rattus norvegicus [29] = organism: Rattus norvegicus; experiment: Anti-inflammatory activity in male Sprague-Dawley rat model of ACLT-induced osteoarthritis assessed as reduction in surface temperature in arthritic joint at 50 to 100 ug, IART treated weekly once for 8 weeks by infrared imaging analysis; format: functional, organism-based; conditions: dose 50-100 µg
Rattus norvegicus [30] = organism: Rattus norvegicus; experiment: Anti-inflammatory activity in male Sprague-Dawley rat model of ACLT-induced osteoarthritis assessed as reduction in OA-induced pain at 50 to 100 ug, IART treated weekly once for 8 weeks by hot-plate test; format: functional, organism-based; conditions: dose 50-100 µg

Cc1cccc(C)c1NC(=O)[C@@H]1Cc2c([nH]c3ccccc23)C2(CN(c3ccccc3)C2)N1
active: inhibition (Bone marrow cell [5]) Dose-dependent-effect | inhibition (Bone marrow cell [6]) Time-dependent-effect | inhibition (Bone marrow cell [7]) Dose-dependent-effect | inhibition (Bone marrow macrophage [8]) Dose-dependent-effect | inhibition (Bone marrow macrophage [9]) Time-dependent-effect | inhibition (Bone marrow macrophage [10]) Time-dependent-effect | inhibition (Bone marrow macrophage [11]) Time-dependent-effect | inhibition (Bone marrow macrophage [12]) Dose-dependent-effect | inhibition (Bone marrow macrophage [13]) Dose-dependent-effect | inhibition (Bone marrow macrophage [14]) Dose-dependent-effect | inhibition (Bone marrow macrophage [15]) Time-dependent-effect | inhibition (Bone marrow macrophage [16]) Time-dependent-effect | inhibition (Bone marrow macrophage [17]) Time-dependent-effect | inhibition (Bone marrow macrophage [18]) Time-dependent-effect | Activity (RAW264.7 [19]) | Activity (RAW264.7 [20]) | inhibition (RAW264.7 [21]) | inhibition (RAW264.7 [22]) | Activity (Primary chondrocyte [23]) | Activity (Primary chondrocyte [24]) | Activity (Rattus norvegicus [28]) | Activity (Rattus norvegicus [29]) | Activity (Rattus norvegicus [30])
110%: viability at 24 h, 10 µM [1]
59.7%: inhibition at 0.1 µM [2]
3980 nM: Kd [3]
4.91 L/kg: Vd [26]
338 ng/mL: Cmax [25]
109 nM: IC50 [4]
71.4%: bioavailability [27]
